Results on 7 compounds are retold here after ChEMBL document CHEMBL4257489, “Recent updates in the discovery and development of novel antimalarial drug candidates” (Medchemcomm, 2018).

The subject of one data set is Plasmodium falciparum. The data set can be described thus: Antimalarial activity against Plasmodium falciparum 3D7 0087/N9 in NODscid IL-2Rgammanull mouse engrafted with parasite infected human erythrocytes assessed as reduction in parasitemia administered via oral gavage starting from day 3 to day 6 post infection measured every 24 hrs during compound dosing by flow cytometric method. The note with it: 3D7 0087/N9, po. The format is functional. (A flow cytometer gives signals particle by particle.)

The subject of data set [1] is Plasmodium berghei. The data set can be described thus: Antimalarial activity against GFP transfected Plasmodium berghei in ICR mouse engrafted with parasite infected erythrocytes assessed as reduction in parasitemia administered as po qd for 3 to 5 days post infection measured on day 3 to 30 by Giemsa staining-based microscopic method. Type of data set: functional.

The nature of data set [2]: Oral bioavailability in mouse at 15 mg/kg. Type of data set: ADME, organism-based. The note with it: in vivo.
Data set [3] can be described thus: Oral bioavailability in Sprague-Dawley rat at 20 +/- 0.2 mg/kg administered via gavage as solution. To be noted: in vivo. Type of data set: ADME, organism-based.
Data set [4] in a line: Oral bioavailability in Sprague-Dawley rat at 17 +/- 0.2 mg/kg administered via gavage as suspension. The note with it: in vivo. The format is ADME, organism-based.
Data set [5] in a line: Oral bioavailability in beagle dog at 3 mg/kg. The format is ADME, organism-based, Canis lupus familiaris. To be noted: in vivo.
Data set [6] can be described thus: Oral bioavailability in beagle dog at 30 mg/kg. Type of data set: ADME, organism-based, Canis lupus familiaris. The note with it: in vivo.
Data set [7] concerns Plasmodium berghei. The data set can be described thus: Antimalarial activity against Plasmodium berghei infected in po dosed mouse measured after 3 doses by 4 day peter's test. The format is functional. The note with it: 96 h.
Data set [8] concerns Plasmodium berghei. The data set can be described thus: Antimalarial activity against Plasmodium berghei infected in mouse assessed as cure rate at 30 mg/kg, po relative to control. The format is functional.
Data set [9] deals with Plasmodium berghei. The data set can be described thus: Antimalarial activity against GFP transfected Plasmodium berghei ANKA infected in NMRI mouse assessed as suppression of parasitemia at 100 mg/kg, po administered at 4, 24, 48, 72 hrs post infection measured at 96 hrs post infection by FACS analysis relative to control. The format is functional.
For data set [10], the system named is Plasmodium berghei. The data set can be described thus: Antimalarial activity against GFP-fused Plasmodium berghei ANKA infected in NMRI mouse assessed as mouse survival at 100 mg/kg, po administered at 4, 24, 48, 72 hrs post infection. The format is functional.
A short description of data set [11]: Oral bioavailability in C57BL/6 mouse at 100 mg/kg. The format is ADME, organism-based. The note with it: in vivo.
A short description of data set [12]: Oral bioavailability in Sprague-Dawley rat at 10 mg/kg administered via gavage. To be noted: in vivo. Type of data set: ADME, organism-based.
Data set [13] in a line: Oral bioavailability in CD1 mouse at 10 mg/kg. The format is ADME, organism-based. To be noted: in vivo.
Data set [14] is described as follows: Half life in CD1 mouse at 2.5 mg/kg, iv. The format is ADME, organism-based. The note with it: in vivo.
Data set [15] concerns Plasmodium berghei. The data set can be described thus: Antimalarial activity against Plasmodium berghei infected in mouse by Thompson test. The format is functional.
The next data set has as its system hERG. The data set can be described thus: Selectivity index, ratio of IC50 for human ERG to IC50 for Plasmodium falciparum NF54. Type of data set: toxicity. The note with it: read-out: Ratio IC50.
The test system of data set [16] is acetylcholinesterase (AChE). In words: Selectivity index, ratio of IC50 for human AchE to IC50 for Plasmodium falciparum NF54. Type of data set: toxicity. To be noted: read-out: Ratio IC50.
The nature of data set [17]: Oral bioavailability in rat. Type of data set: ADME, organism-based. To be noted: in vivo.

Molecules are shown by their SMILES.

`N#Cc1cc(NC(=O)[C@H]2c3ccccc3C(=O)N(CC(F)(F)F)[C@@H]2c2cccnc2)ccc1F` [SJ-733]: the ED50 in the data set with Plasmodium falciparum and in the data set on Plasmodium berghei [1] was below 5 mg/kg in each case. Besides, the bioavailability in [2], in data set [3], in data set [4], in data set [5] and in data set [6] was above 30% each time.
Turning to `FC1CCN(CCOc2ccc(C3CCC4(CC3)OOC3(OO4)C4CC5CC(C4)CC3C5)cc2)CC1` (centres undefined), the ED50 (as a rule, the midpoint of the dose-response relation) with Plasmodium berghei [7] is 4 mg/kg. The Activity in the data set on Plasmodium berghei [8] was determined as 66%.
On to `COc1ccc2c(c1)CC[C@@H]1[C@@H]2CC[C@]2(C)[C@H](NCc3cc4ccccc4cc3O)CC[C@@H]12`, for which, in the data set with Plasmodium berghei [9], the Activity amounted to 99.8%. Besides, the Survival in the data set with Plasmodium berghei [10] was found to be 27 days. Moreover, in data set [11], the bioavailability – broadly, dose-corrected exposure relative to a reference, in per cent – was below 5%.
`CC1(C)N=C(N)N=C(N)N1OCCCOc1cc(Cl)c(Cl)cc1Cl`: the bioavailability in data set [12] is below 1%.
In [13], `COc1ccc(NC(=O)N2CCCCN3[C@H](CN(C)C)[C@H](c4ccc(C#Cc5ccccc5)cc4)[C@@H]3C2)cc1` returned a bioavailability of 80%. Moreover, the half-life – broadly, how long it takes for the measured level to halve – in [14] is 32 h.
The compound `COc1cc2[nH]c(C)c(-c3ccc(Oc4ccc(OC(F)(F)F)cc4)cc3)c(=O)c2cc1Cl` displayed an ED50 in the data set with Plasmodium berghei [15] of 0.016 mg/kg.
In the case of `Cc1nc(Nc2ncc(N3CCN(C)[C@H](C)C3)c(Nc3cc(C)n(C)n3)n2)cc(C2CC2)c1F` [SUTIDIAZINE], the selectivity ratio (in the data set on hERG; in [16]) was above 1000 throughout. The compound further showed a bioavailability in data set [17] of 80%.
